Drawing on ChEMBL document CHEMBL5506025, “Discovery of LLC0424 as a Potent and Selective in Vivo NSD2 PROTAC Degrader” (J Med Chem, 2024), this text covers Activity for 1 compound.

Assay [1] has as its system SEM cells. Description: Downregulation of TNFAIP3 gene expression in human SEM cells measured after 14 days by RNA sequencing assay. The following applies: time 14.0 day. In kind it is functional, cell-based.
Assay [2] has as its target T1, Protein cereblon/Histone-lysine N-methyltransferase NSD2 (Homo sapiens) (UniProt O96028+Q96SW2). As to the kind of experiment: PROTAC activity at CRBN/NSD2 in human RPMI 8402 cells assessed as decrease in NSD2 level at 2 uM measured after 12 hrs by TMT-labeled quantitative proteomics assay. Type of assay: cell-based.
Assay [3] concerns the target T1, Protein cereblon/Histone-lysine N-methyltransferase NSD2 (Homo sapiens). Description: PROTAC activity at CRBN/NSD2 in human VCaP cells assessed as decrease in NSD2 level at 2 uM measured after 6 hrs by TMT-labeled quantitative proteomics assay. In kind it is cell-based.
Assay [4] shares this target. As to the kind of experiment: PROTAC activity at CRBN/NSD2 in human RPMI 8402 cells assessed as induction of NSD2 degradation at 2 uM pretreated with MLN4924 for 2 hrs followed by compound addition and measured after 6 to 12 hrs by Western blot analysis. In kind it is cell-based. The following applies: time 6-12 hrs.
For assay [5] the target is unchanged. Description: PROTAC activity at CRBN/NSD2 in human SEM cells assessed as induction of NSD2 degradation at 2 uM measured after 4 to 8 hrs hrs by immunoblot analysis. Type of assay: cell-based. The following applies: time 4-8 hrs. For orientation: Immunoblotting shows a protein as a band on a membrane.
Assay [6] concerns the target Protein cereblon/Eukaryotic peptide chain release factor GTP-binding subunit ERF3A (Homo sapiens) (UniProt Q96SW2+P15170). As to the kind of experiment: PROTAC activity at CRBN/GSPT1 in human SEM cells assessed as decrease in GSPT1 level at 2 uM measured upto 8 hrs by immunoblot analysis. In kind it is cell-based.
Assay [7] concerns the target T1, Protein cereblon/Histone-lysine N-methyltransferase NSD2 (Homo sapiens). Description: In vivo PROTAC activity at CRBN/NSD2 in SCID mouse xenografted with human SEM cells assessed as downregulation of NSD2 level at 60 mg/kg, ip for 5 days by immunohistochemical analysis. In kind it is functional, organism-based. The following applies: time 5.0 day.
The target is the same in assay [8]. As to the kind of experiment: PROTAC activity at CRBN/NSD2 in human RPMI 8402 cells assessed as induction of NSD2 degradation at 2 uM pretreated with VL-285 for 2 hrs followed by compound addition and measured after 6 to 12 hrs by Western blot analysis. The following applies: time 6-12 hrs. In kind it is cell-based.
Assay [9] shares this target. Description: PROTAC activity at CRBN/NSD2 in human RPMI 8402 cells assessed as induction of NSD2 degradation at 2 uM pretreated with bortezomib for 2 hrs followed by compound addition and measured after 6 to 12 hrs by Western blot analysis. Type of assay: cell-based. The following applies: time 6-12 hrs.
For assay [10] the target is unchanged. Description: In vivo PROTAC activity at CRBN/NSD2 in SCID mouse xenografted with human SEM cells assessed as downregulation of NSD2 level at 60 mg/kg, ip for 5 days by Western blot analysis. In kind it is functional, organism-based. The following applies: time 5.0 day. Background: A xenograft is tissue or cells of one species grown in another, often human tumour cells in immunodeficient mice.

Assay [11] has the same target. As to the kind of experiment: PROTAC activity at CRBN/NSD2 in human RPMI 8402 cells assessed as induction of NSD2 degradation at 2 uM pretreated with UNC6934 for 2 hrs followed by compound addition and measured after 6 to 12 hrs by Western blot analysis. The following applies: time 6-12 hrs. In kind it is cell-based.
The target is the same in assay [12]. As to the kind of experiment: PROTAC activity at CRBN/NSD2 in human SEM cells assessed as induction of NSD2 degradation at 2 uM preincubated for 12 hrs followed by compound washout and measured after 48 hrs by immunoblot analysis. Type of assay: cell-based.
Assay [13] concerns SEM cells. As to the kind of experiment: Downregulation of MS4A1 gene expression in human SEM cells measured after 14 days by RNA sequencing assay. The following applies: time 14.0 day. Type of assay: functional, cell-based.
In assay [14] the test system is SEM cells. Description: Cytotoxicity against human SEM cells assessed as inhibition of cell growth at 2 uM measured after 9 days by Celltiter-glo assay. Type of assay: functional, cell-based. The following applies: time 9.0 day. (In general: Cellular ATP, detected with luciferase, serves as a proxy for viable cell number.)
In assay [15] the target is T1, Protein cereblon/Histone-lysine N-methyltransferase NSD2 (Homo sapiens). Description: PROTAC activity at CRBN/NSD2 in human SEM cells assessed as induction of NSD2 degradation incubated for 24 hrs by immunoblot analysis. In kind it is cell-based. The note with it: dose 0.001-10 µM.
The target is the same in assay [16]. As to the kind of experiment: PROTAC activity at CRBN/NSD2 in human SEM cells assessed as induction of NSD2 degradation at 2 uM measured after 12 to 24 hrs by immunoblot analysis. The note with it: time 12-24 hrs. Type of assay: cell-based.

Structures are written as SMILES. The source made the active and inactive calls. No cut-off for these calls is given here.

T1 sequence (O96028 whole entry, looked up): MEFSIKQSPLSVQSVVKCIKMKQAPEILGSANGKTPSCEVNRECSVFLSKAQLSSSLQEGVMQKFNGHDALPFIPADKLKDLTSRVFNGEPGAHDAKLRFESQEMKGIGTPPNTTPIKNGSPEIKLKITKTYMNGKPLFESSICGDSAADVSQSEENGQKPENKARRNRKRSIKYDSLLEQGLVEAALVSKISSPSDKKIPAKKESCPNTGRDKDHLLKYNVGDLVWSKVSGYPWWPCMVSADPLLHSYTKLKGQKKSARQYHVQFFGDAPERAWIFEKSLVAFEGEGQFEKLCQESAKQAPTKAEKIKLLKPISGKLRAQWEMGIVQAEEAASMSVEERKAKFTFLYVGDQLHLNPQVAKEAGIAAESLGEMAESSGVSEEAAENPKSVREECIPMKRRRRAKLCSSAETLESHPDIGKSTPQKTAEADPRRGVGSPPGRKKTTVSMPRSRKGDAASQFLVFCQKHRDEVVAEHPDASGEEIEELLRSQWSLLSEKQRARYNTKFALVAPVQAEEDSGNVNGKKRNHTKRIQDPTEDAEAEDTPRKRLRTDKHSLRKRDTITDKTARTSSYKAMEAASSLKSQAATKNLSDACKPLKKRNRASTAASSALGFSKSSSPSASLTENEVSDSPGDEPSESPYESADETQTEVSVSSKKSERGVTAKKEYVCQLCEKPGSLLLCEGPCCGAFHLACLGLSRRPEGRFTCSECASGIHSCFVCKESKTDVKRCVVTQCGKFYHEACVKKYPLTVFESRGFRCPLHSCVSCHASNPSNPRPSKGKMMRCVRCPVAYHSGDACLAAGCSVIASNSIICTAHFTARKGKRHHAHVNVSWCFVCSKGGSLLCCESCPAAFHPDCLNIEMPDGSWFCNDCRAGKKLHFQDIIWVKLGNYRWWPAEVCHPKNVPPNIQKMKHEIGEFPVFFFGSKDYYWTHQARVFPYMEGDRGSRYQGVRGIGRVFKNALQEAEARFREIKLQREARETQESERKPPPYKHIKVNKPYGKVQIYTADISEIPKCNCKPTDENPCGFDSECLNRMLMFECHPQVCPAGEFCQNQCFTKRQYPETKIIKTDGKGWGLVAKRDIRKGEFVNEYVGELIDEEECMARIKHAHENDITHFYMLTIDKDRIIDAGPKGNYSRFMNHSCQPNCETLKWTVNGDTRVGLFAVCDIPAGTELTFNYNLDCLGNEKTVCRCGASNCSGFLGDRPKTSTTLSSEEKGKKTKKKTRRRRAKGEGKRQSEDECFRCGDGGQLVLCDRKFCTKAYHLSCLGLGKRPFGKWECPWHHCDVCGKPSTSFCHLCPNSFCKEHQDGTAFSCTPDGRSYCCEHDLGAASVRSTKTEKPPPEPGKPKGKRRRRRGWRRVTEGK
T1 sequence (Q96SW2 whole entry, looked up): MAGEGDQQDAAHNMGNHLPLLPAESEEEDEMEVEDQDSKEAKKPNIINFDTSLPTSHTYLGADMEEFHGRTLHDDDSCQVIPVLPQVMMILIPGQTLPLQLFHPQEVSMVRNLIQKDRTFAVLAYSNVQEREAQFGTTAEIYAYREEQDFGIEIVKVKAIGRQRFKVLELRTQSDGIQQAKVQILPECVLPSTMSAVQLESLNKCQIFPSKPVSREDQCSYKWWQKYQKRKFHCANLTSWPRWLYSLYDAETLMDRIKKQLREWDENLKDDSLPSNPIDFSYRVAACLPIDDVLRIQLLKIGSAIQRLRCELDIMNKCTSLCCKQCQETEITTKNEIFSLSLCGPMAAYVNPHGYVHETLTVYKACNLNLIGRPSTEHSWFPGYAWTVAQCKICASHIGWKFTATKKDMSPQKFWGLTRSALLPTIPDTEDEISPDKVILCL
Sequence of Protein cereblon/Eukaryotic peptide chain release factor GTP-binding subunit ERF3A (Homo sapiens) (P15170 whole entry, looked up): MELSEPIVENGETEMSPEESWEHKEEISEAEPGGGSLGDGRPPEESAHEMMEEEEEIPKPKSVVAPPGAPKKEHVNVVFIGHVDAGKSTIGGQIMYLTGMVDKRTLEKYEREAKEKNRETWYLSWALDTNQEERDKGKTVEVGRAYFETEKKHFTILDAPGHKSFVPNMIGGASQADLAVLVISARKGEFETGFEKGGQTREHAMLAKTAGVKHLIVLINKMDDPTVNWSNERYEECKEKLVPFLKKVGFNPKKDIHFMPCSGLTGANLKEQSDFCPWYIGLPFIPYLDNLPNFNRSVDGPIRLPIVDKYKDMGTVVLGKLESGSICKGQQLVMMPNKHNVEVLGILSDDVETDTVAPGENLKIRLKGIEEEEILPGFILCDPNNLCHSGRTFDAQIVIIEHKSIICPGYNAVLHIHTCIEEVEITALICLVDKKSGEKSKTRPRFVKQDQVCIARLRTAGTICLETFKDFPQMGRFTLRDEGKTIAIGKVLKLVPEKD
Sequence of Protein cereblon/Eukaryotic peptide chain release factor GTP-binding subunit ERF3A (Homo sapiens) (Q96SW2 whole entry, looked up): as the sequence (Q96SW2 whole entry, looked up) above

On to `O=C1CCC(N2C(=O)c3ccc(N4CCC(NC(=O)c5ccc(NC(=O)c6ccc(CN(C(=O)c7ccc8c(c7)OCC(=O)N8)C7CC7)cc6)cc5)CC4)cc3C2=O)C(=O)N1` (stereo unspecified), for which the outcome (with SEM cells [1]; in assay [2]; in assay [3]; in assay [5]; in assay [7]; in [8]) was Active. Moreover, the outcome (in assay [10]; in the assay with SEM cells [13]; in the assay with SEM cells [14]; in assay [16]) was Active. Besides, the result in assay [4], in [6], in [9], in [11] and in assay [12] was inactive. Besides, the Activity result in [15] was “Dose-Dependent Effect”.
